Drawing on the NIST ThermoML archive (doi:10.1021/acs.jced.8b00298), this text covers Critical pressure, Critical temperature and Critical molar volume for 6 compounds.

For this series the following is noted: Liquid.

Numbers after ± are expanded uncertainties.

Take `C=C(C)C(=O)OC` [methyl methacrylate]: where the note is “Capillary flow”, the Critical pressure is listed as 3750 ± 100 kPa and the Critical temperature turned out to be 557.9 ± 1.6 K.

For the compound `C=CC(=O)OC` [methyl propenoate], under “Capillary flow”, the Critical pressure turned out to be 3990 ± 140 kPa and the Critical temperature came out at 532.7 ± 2.6 K.

In the case of `C1CCNCC1` [piperidine], for the setting “Capillary flow”, the Critical pressure came out at 4560 ± 140 kPa and the Critical temperature amounted to 594.4 ± 3 K.

As to `c1cc[nH]c1` [pyrrole], under “Capillary flow”, the Critical pressure is on record as 6300 ± 170 kPa and the Critical temperature was found to be 633.3 ± 3 K.

With `C1CCSC1` [tetrahydrothiophene], for the setting “Capillary flow”, the Critical pressure came out at 5430 ± 300 kPa and the Critical temperature came to 634.6 ± 6 K.

Take `C[C@H]1CC[C@H](C)CC1` [trans-1,4-dimethylcyclohexane]: for the setting “Visual”, the Critical molar volume turned out to be 0.00042 ± 2e-05 m3/mol and the Critical pressure is recorded as 3060 ± 30 kPa. Also, where the note is “Visual observation in an unstirred cell”, the Critical temperature stood at 585.84 ± 0.24 K.
